The record followed here is US20220023231A1, “METHOD OF TREATING POSTPRANDIAL INFLAMMATION AND PREVENTING WEIGHT GAIN” (DASMAN DIABETES INSTITUTE, priority 2020, published 2022).

For data set [1], the system named is THP-1 cells. The data set is described as follows: Oil Red O staining of lipid accumulation in TNF-α stimulated THP-1 derived macrophages. It counts as cell-based, Human. Conditions: in response to TNF-α (10 ng/ml). As for the experimental part:
(§1) Cell culture: Human monocytic leukemia cell line (THP-1) cells were purchased from American Type Culture Collection (ATCC). Cell cultures were maintained in RPMI-1640 culture medium (Gibco, Life Technologies, Grand Island, USA) supplemented with 10% fetal bovine serum (Gibco, Life Technologies, Grand Island, N.Y., USA), 2 mM glutamine (Gibco, Invitrogen, Grand Island, N.Y., USA), 1 mM sodium pyruvate, 10 mM HEPES, 100 ug/m1 Normocin 50 U/ml penicillin and 50 μg/m1 streptomycin (P/S; Gibco, Invitrogen, Grand Island, N.Y., USA) and incubated at 37° C. (with humidity) in 5% CO2.
(§2) Cell stimulation: Prior to stimulation, THP-1 cells were plated in 24-well plates (Costar, Corning Incorporated, Corning, N.Y., USA) at 5×10^5 cells/well cell density unless indicated otherwise. […]
Oil Red O staining: To determine the degree of lipid accumulation, the accumulation of cytoplasmic triglycerides in cells were measured by staining with Oil Red O (SigmaAldrich, St Louis, Mo., USA). […]

The subject of data set [2] is THP-1 cells. The data set is described as follows: Flow cytometry (FACS) assessment of lipid accumulation in TNF-α stimulated THP-1 derived macrophages. Conditions: in response to the presence of TNF-α. It counts as cell-based, Human. The procedure:
as §1, §2
(In general: A flow cytometer gives signals particle by particle.)

In data set [3] the test system is THP-1 cells. The data set is described as follows: IL-1β ELISA and TNF-α / CD11b mRNA expression in macrophage cells after TNF-α. It is filed as cell-based, Human. The following applies: in response to TNF-α treatment. As for the experimental part: as §1, §2
(An ELISA detects its analyte on a solid surface through an enzyme-linked reagent.)

Another data set deals with human macrophages. Description: Inflammatory and infiltration marker gene expression in human macrophages exposed to palmitic acid. It is filed as cell-based. The following applies: 30 minutes pre-treatment before addition of palmitic acid.
The next data set relates to macrophage. The data set is described as follows: Fatty acid uptake related gene expression and intracellular fat in macrophages/monocytes exposed to palmitic acid. It is filed as cell-based.
The subject of data set [4] is pro-inflammatory monocytes (CD45+/Ly6C/CD11b+ cells). The data set is described as follows: Acute high fat food feeding in mice, pro-inflammatory monocytes in blood by flow cytometry. It is filed as in vivo, mouse. The procedure:
Further experiments were developed to test the utility of Triacsin C as an anti-inflammatory and/or weight gain prevention drug in a mouse model. Base line blood samples were taken from each mouse before feeding. Mice were then administered either Triacsin C (10 mg/m1) or a vehicle (control) in a drinkable form 30 minutes prior to introducing them to high fat food. Four hours after food consumption another blood sample was collected from each mouse and the inflammatory response was measured using flow cytometry to look for pro-inflammatory monocytes (CD45^+/Ly6C/CD11b^+ cells). (See FIGS. 7(A)-7(B)) The experiment was repeated 5 times on non-consecutive days and also confirmed that the dose was safe.
(§3) A further experiment was designed to test whether constant daily doses of Triacsin C could prevent weight gain (or the development of obesity and other weight gain related diseases). […] Mice were placed on a constant high fat diet (HFD) for up to 5 weeks in the presence of a daily (drinkable) dose of either Triacsin C or the vehicle control (FIG. 9(A)).

Data set [5] is described as follows: Constant high fat diet (HFD) in mice with daily drinkable dose. It counts as in vivo, mouse.
Excerpt: as §3

Setting [6] is: daily dose, HFD, versus vehicle control.
Setting [7] is: low daily drinkable dose, HFD up to 5 weeks.

Regarding `CCC/C=C/C/C=C/C=C/C=NNN=O` [Triacsin C, N-(((2E,4E,7E)-undeca-2,4,7-trienylidene)amino)nitrous amide], the “lipid accumulation (Oil Red O staining)” value in the data set on THP-1 cells [1] was “prevents lipid accumulation”. For the same compound, the “lipid accumulation (FACS, cell size and granulation)” value with THP-1 cells [2] is “no significant change in apparent lipid accumulation”. Also, the “inflammatory markers (IL-1B protein, TNF-α mRNA, CD11b mRNA)” value with THP-1 cells [3] is “little to no change in inflammatory markers”. Also, in the data set on human macrophages, the “infiltration markers (CD11b, CCR2, CD80)” value is “reduce infiltration markers” and the “upregulation of monocytic inflammatory markers (IL-1b, CD11c, HLA-DR)” value is “reduce the upregulation of monocytic inflammatory markers”. In addition, the “amount of intracellular fat found within monocytes” value in the data set on macrophage (data not shown) was “reduced the amount of intracellular fat found within monocytes”. Further, the “expression of fatty acid uptake-related genes” value in the data set on macrophage (pre-treatment, response to palmitic acid (FIG. 5)) was “inhibited expression of fatty acid uptake-related genes”. For the same compound, the “safety of the dose” value in data set [4] (10 mg/m1 drinkable, repeated 5 times on non-consecutive days) is “safe”. Moreover, the “inflammatory response in monocytes (CD45+, Ly6C+, CD11b+ cells)” value in data set [4] (drinkable, 30 minutes prior to high fat food, blood four hours after food) is listed as “inhibit the inflammatory response in monocytes”. Also, the “reduction of inflammatory upregulation” value in data set [4] (lower dose, four-hour acute high fat diet feeding) is 10%. In addition, in data set [4] (lower dose, four-hour acute high fat diet feeding, control 34.2%), the pro-inflammatory monocytes amounted to 25.4%. In addition, in data set [5] (setting [6]), the “adipose tissue (fat) of livers” value is listed as “significantly less adipose tissue” and the liver size result is “smaller”. Also, in data set [5] (setting [7]), the “increase in inflammatory monocytes from long term HFD” value is on record as “prevented the increase in inflammatory monocytes” and the “weight gain resulting from HFD” value is given as “dramatically prevented”.
With `CCOC(=O)[C@@]1(CCCCCCOc2ccc(Cl)cc2)CO1` [Etomoxir], in the data set on THP-1 cells [2], the “lipid accumulation (FACS, cell size and granulation)” value is listed as “increased lipid accumulation”.
